{
  "source": "patent US20110065760A1",
  "about": "“COMPOUNDS FOR THE INHIBITION OF ROTAMASES AND USE THEREOF” (Jerini AG, priority 2002, published 2011)",
  "key": {"[1]": {"tested_on": "tumor cell lines (HL-60, HeLa, PC-3, Caco-2, MCF-7)", "test": "WST-1 cytotoxicity assay, tumor cell lines (panel statement)", "type": "cell-based, human", "conditions": "WST-1, 48 h; table 4", "summary_of_the_method": "(§1)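 Human tumour cell lines in culture were exposed to compounds at 37° C for 48 h, then given WST-1. Viability was read as formazan absorbance at (450 vs. 620) nm.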"}, "[2]": {"test": "WST-1 cytotoxicity assay, PC-3", "type": "cell-based", "conditions": "human, PC-3 cells (prostate carcinoma); WST-1, 48 h incubation; read-out: EC50 class, cytotoxic effect, CL-3 (PC-3)", "summary_of_the_method": "as §1"}, "Hela cells": {"tested_on": "Hela cells", "test": "DAPI staining", "type": "cell-based, human", "conditions": "FIG. 3", "experimental": "Hela cells grown on poly-L-Lys-coated coverslips were fixed with 2% paraformaldehyde/MeOH.\nCellular DNA was stained with DAPI staining buffer (100 mM Tris (pH 7.4), 150 mM NaCl, 1 mM CaCl2, 0.5 mM MgCl2, 0.1% nonidet P-40, 1 μg/ml DAPI (Molecular Probes)). All the steps were performed at room temperature, and cells were washed two times with PBS after each step. Finally, cells were mounted in 80% glycerol/PBS."}, "[3]": {"test": "WST-1 cytotoxicity assay, HL-60", "type": "cell-based", "conditions": "human, HL-60 cells (acute myeloid leukemia); WST-1, 48 h incubation; read-out: EC50 class, cytotoxic effect, CL-1 (HL-60)", "summary_of_the_method": "as §1"}, "[4]": {"test": "WST-1 cytotoxicity assay, MCF-7", "type": "cell-based", "conditions": "human, MCF-7 cells (breast adenocarcinoma); WST-1, 48 h incubation; read-out: EC50 class, cytotoxic effect, CL-5 (MCF-7)", "summary_of_the_method": "as §1"}, "[5]": {"tested_on": "cyclin D1 in MCF-7 and HeLa cells", "test": "Cyclin D1 down regulation (western blot marker analysis)", "type": "cell-based, human", "experimental": "MCF-7 (5×10^5 cells/well) and HeLa cells (1.5×10^5 cells/well) were seeded in 6-well plates and incubated at 37° C. over night. Compounds or DMSO (final solvent concentration 0.1%) were added to the cells and incubated for different times as indicated. Subsequently, cells were lysed in RIPA buffer for 30 min on ice and centrifuged for 20 min at 4° C. After addition of electrophoresis sample buffer (4×) and 50 mM DTT to the supernatant, samples were boiled for 4 min at 95° C. Samples (equivalent to 2×10^5 cells/well) were run on a 15% SDS gel followed by blotting onto PVDF membrane.\nThe membrane was blocked for 1 h in 10 mM Tris (pH 7.5), 100 mM NaCl, 0.1% Tween-20 and 5% non-fat dry milk (blocking buffer) and incubated for 1 h with mouse anti-hCyclin D1 monoclonal antibody (clone DCS-6, BD Biosciences) diluted to 1 μg/ml in blocking buffer. Blots were washed 3×10 min with 10 mM Tris (pH 7.5), 100 mM NaCl, 0.1% Tween-20 (washing buffer) and incubated with 0.7 μg/ml peroxidase-conjugated sheep anti-mouse IgG (Sigma) in blocking buffer for 1 h. After washing 3×10 min with washing buffer, the plot was developed with the ECL+ detection kit (Amersham Biosciences)."}, "[6]": {"test": "WST-1 cytotoxicity assay, Caco-2", "type": "cell-based", "conditions": "human, Caco-2 cells (colon adenocarcinoma); WST-1, 48 h incubation; read-out: EC50 class, cytotoxic effect, CL-4 (Caco-2)", "experimental": "For this cytotoxic evaluation of the compounds the commercial available WST-1 assay (Roche) was used according to the manufacturer's instructions. The assay is based on the cleavage of the tetrazolium salt WST-1 by mitochondrial dehydrogenases found in viable cells. In general compounds were added to cells cultured in 96-well plates at 37° C. After 48 h of incubation 10 μl of WST-1 solution was added. The formazan dye was analyzed with an ELISA plate reader at (450 vs. 620) nm. CL-1: human acute myeloid leukemia, HL-60 CL-2: human cervix carcinoma, HeLa CL-3: human prostate carcinoma, PC-3 CL-4: human colon adenocarcinoma, Caco-2 CL-5: human breast adenocarcinoma, MCF-7"}, "HL-60 cells": {"tested_on": "HL-60 cells", "test": "FACS measurements and TUNEL assay (Apo-Direct kit)", "type": "cell-based, human", "conditions": "FIG. 2", "description": "Enari M. Sakahira H. Yokoyama H. Okawa K. Iwamatsu A. Nagata S. A caspase-activated DNase that degrades DNA during apoptosis, and its inhibitor ICAD [erratum appears in Nature 1998 May 28; 393(6683):396.]. Nature. 391:43-50, 1998 • Darzynkiewicz Z. Juan G. Li X. Gorczyca W. Murakami T. Traganos F. Cytometry in cell necrobiology: analysis of apoptosis and accidental cell death (necrosis). Cytometry. 27:1-20, 1997\nApoptotic HL-60 cells were detected by FACS analysis of FITC-dUTP-labelled DNA breaks using the Apo-Direct kit (BD-Pharmingen) according to the manufacturer's protocol."}, "[7]": {"test": "WST-1 cytotoxicity assay, HeLa", "type": "cell-based", "conditions": "human, HeLa cells (cervix carcinoma); WST-1, 48 h incubation; read-out: EC50 class, cytotoxic effect, CL-2 (HeLa)", "summary_of_the_method": "as §1"}, "LpCyp18": {"target": "LpCyp18 (Legionella pneumophila, UniProt Q5ZRZ4)", "sequence (Q5ZRZ4 1-164)": "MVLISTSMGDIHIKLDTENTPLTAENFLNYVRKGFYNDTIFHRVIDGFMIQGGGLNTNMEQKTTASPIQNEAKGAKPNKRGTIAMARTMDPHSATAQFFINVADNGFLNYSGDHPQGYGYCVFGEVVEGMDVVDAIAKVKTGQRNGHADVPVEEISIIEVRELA", "test": "biochemical", "conditions": "IC50 class, Target T-4 (LpCyp18)"}},
  "data": [
    {"smiles": "Cc1c(Cl)cc(NC(=O)NC(C)(C)CC(C)(C)C)c(O)c1Cl", "note": "[Compound 102]", "values": [
      {"measurement": "cytotoxic effect on the tumor cell lines tested", "setting": "[1]", "value": "particular relevance"},
      {"measurement": "EC50 at 48 h", "setting": "[2]", "value": "< 10", "unit": "µM"},
      {"measurement": "induction of apoptosis (DAPI staining, fluorescence microscopy)", "setting": "Hela cells", "value": "induce apoptosis"},
      {"measurement": "EC50 at 48 h", "setting": "[3]", "value": "< 10", "unit": "µM"},
      {"measurement": "EC50 at 48 h", "setting": "[4]", "value": "< 10", "unit": "µM"},
      {"measurement": "cyclin D1 down regulation", "setting": "[5]", "value": "particular relevance"},
      {"measurement": "EC50 at 48 h", "setting": "[6]", "value": "< 10", "unit": "µM"},
      {"measurement": "induction of apoptosis (FACS analysis of FITC-dUTP-labelled DNA breaks)", "setting": "HL-60 cells", "value": "induce apoptosis"},
      {"measurement": "EC50 at 48 h", "setting": "[7]", "value": "< 10", "unit": "µM"},
      {"measurement": "IC50", "setting": "LpCyp18", "value": "10 to 50", "unit": "µM"}
    ]}
  ]
}
